Laboratory results reported in US20160158245A1, “PHARMACEUTICAL FORMULATION CONTAINING THIENOTRIAZOLODIAZEPINE COMPOUNDS” (ONCOETHIX GmbH, priority 2013, published 2016).

Experiments:
Type in all cases: cell-based
[1] = test system: Ph+ALL patient cells; assay: Apoptosis in primary patient cells treated ex vivo; conditions: 1 Ph+ ALL patient sample ex vivo, 72 h, 250 and 500 nM
Protocol: (§1) FIGS. 44A-44D show effects of OTX015 on primary patient cells. 5 samples from AML patients and 2 ALL, including 1 ALL Ph+ patient, were treated ex vivo with OTX015. OTX015 induced apoptosis in primary AML patient samples at various degrees ranging from 35-85% (FIG. 6). The Ph+ALL patient appeared to be resistant. OTX015 induced apoptosis in primary cells of the AML and ALL patients. Mononuclear cells were obtained from bone marrow (BM) or peripheral blood (PB) from AML and ALL patients. Cells were exposed 72 h with 250 and 500 nM of OTX015 and apoptosis was assessed by annexin V and PI staining. Results are shown with means±SD from duplicates of one experiment.
(§2) Mononuclear cells (MNC) from the bone marrow (BM) were isolated by Ficoll-Paque PLUS density gradient (Amersham Biosciences, Sunnyvale, USA). Patient cells were maintained in IMDM (Gibco) supplemented with 10% heat-inactivated fetal calf serum, 2 mM L-glutamine, 100 IU/mL penicillin, and 100 µg/mL streptomycin without growth factors.
(§3) a total of 1×10^6 cellsderived from patients or cell lines were resuspended in 1 mL culture medium and incubated with the indicated dosages of OTX015 prepared freshly from 1 mM stock solution in DMSO. […] Apoptotic cells were detected by cytofluorometric analysis using a FACScan (Becton Dickinson, Mountain View, USA). […] Data were analyzed with the Flowjo (Tree Star Inc., Ashland, USA) flow cytometry software. […]

[2] = test system: primary AML patient samples; assay: Apoptosis in primary patient cells treated ex vivo; conditions: 5 AML patient samples ex vivo, 72 h, 250 and 500 nM
Protocol: as §1, §2, §3

[3] = test system: BRD2, BRD3, BRD4 and c-MYC; assay: Immunoblot of BRD proteins and c-MYC in leukemia cell lines; conditions: different leukemia cell lines, 100 nM, within 3 hours
Excerpt: Blots were stained with either goat anti-rabbit InfraRedDye 680RD or goat anti-mouse InfraRedDye 800CWsecondary antibody (LiCor). Membranes were imaged using a LiCor Odyssey scanner. Boxes were manually placed around each band of interest, which returned near-infrared fluorescent values of raw intensity with intra-lane background subtracted using Odyssey 3.0 analytical software (LiCor).

[4] = test system: ALL cell lines; assay: MTT assay, statement over all ALL cell lines; conditions: MTT at 72 h, span over ALL cell lines; read-out: GI50 across all ALL cell lines
Protocol: Different representative cell lines for ALL including Jurkat cells (T-ALL), RS 4-11 (MLL-AF4 B-precursor ALL), TO′M-1, BV173 (both Ph+ALL) and AML including K562 (Ph+CML in blast crisis,), HL-60 (NRAS driven AML2), NOMO1 (MLL-AF9 driven AML), KG1 (BMP-FGRF+AML6) and its more immature subtype KG1a were cultured in RPMI 1640 (Gibco Invitrogen, Basel, Switzerland) supplemented with 10% or 20% heat-inactivated fetal calf serum respectively, 2 mM L-glutamine, 100 IU/mL penicillin, and 100 µg/mL streptomycin.
MTT-assay: cells were seeded first into 24-well plates at the density of […] per well to avoid variations of concentrations in smaller volumes and treated with different doses of OTX015 prepared freshly from 1 mM stock solution in DMSO. Cells were transferred to 96-well plates for MTT-assay. Untreated cells and cells treated with equal amounts of DMSO (0.2-1%) used for dilution of OTX015 were used as controls. The 3-(4,5-dimethylthiazol-2-yl)-2,5-diphenyltetrazolium bromide (MTT) (Molecular Probes, Eugene, USA) was prepared as a stock of 5 mg/ml in PBS. […] Cells were then lysed with 25% SDS lysis buffer and absorbance was read at 570 nm. […] GI50 values were calculated with Prism v5 software (GraphPad Inc., La Jolla, USA).
AML and ALL cell lines were exposed to increasing concentrations of compound (1-1), (0.1 nM-10 μM). […] GI50 values were expressed as means from 3 independent experiments.

Cc1sc2c(c1C)C(c1ccc(Cl)cc1)=N[C@@H](CC(=O)Nc1ccc(O)cc1)c1nnc(C)n1-2 [Compound (1-1), 2-[(6S)-4-(4-chlorophenyl)-2,3,9-trimethyl-6H-thienol[3,2-f]-[1,2,4]triazolo[4,3-a][1,4]diazepin-6-yl]-N-(4-hydroxyphenyl)acetamide dihydrate]
sensitivity to apoptosis induction [1]: resistant | apoptosis [2]: 35-85% | regulation of BRD2, BRD3, BRD4 and c-MYC at the protein level [3]: rapid down-regulation of BRD2, BRD3 and BRD4 associated with c-MYC down-regulation | GI50 [4]: 34.2 to 250 nM
